13 molecules from article PMC4577092, “Identification of Small-Molecule Inhibitors of the HuR/RNA Interaction Using a Fluorescence Polarization Screening Assay Followed by NMR Validation” (PLoS ONE, 2015) can be followed below.

In one series the target is T1, HuR (Homo sapiens, UniProt Q15717).
T1 construct: Full length (residue 1–326), RRM1-2 (residue 1–190); inferred from pET14b vector and metal chelation chromatography) (N); made in house; host or cells: E. coli BL21 Rosetta
T1 sequence (Q15717 whole entry): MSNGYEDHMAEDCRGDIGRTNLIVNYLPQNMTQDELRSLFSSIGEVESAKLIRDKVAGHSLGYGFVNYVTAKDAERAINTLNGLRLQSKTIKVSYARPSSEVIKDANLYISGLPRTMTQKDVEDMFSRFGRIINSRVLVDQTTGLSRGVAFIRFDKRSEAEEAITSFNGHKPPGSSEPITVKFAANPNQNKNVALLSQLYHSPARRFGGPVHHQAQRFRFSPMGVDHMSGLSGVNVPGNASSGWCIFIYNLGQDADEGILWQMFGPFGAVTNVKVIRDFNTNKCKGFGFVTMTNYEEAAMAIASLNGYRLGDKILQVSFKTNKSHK
The series is described as follows: Fluorescence polarization (FP) competition / dose-response assay of HuR/RNA interaction. The settings on record: 10nM RNA and 50nM HuR, compounds serially diluted from 250uM. Type of series: binding. Here is the method:
Fluorescence polarization measurements were performed in the 384-well plate format on a Biotek Synergy2 plate reader using 480/20nm excitation and 520/20nm emission filters. The NCI diversity set V library containing 1597 compounds was screened in this study. All samples were dissolved in phosphate buffer (50mM Napi, and 100mM NaCl, 5mM TCEP at pH 7.0). The assay mixture contained 50nM HuR and 10nM RNA to yield FP values approximately 80% of the maximum value observed for fully bound RNA. NCI diversity set V library in 96-well format (10mM stock in DMSO) was transferred to 384-well plate, and then diluted into 50uM in phosphate buffer. 5ul of 50uM compound stock was added to 20 ul assay mixture to yield 10uM final compound concentration.
We first characterized the binding of the full-length HuR with 11-mer polyribonucleotide derived from the 3’ UTR of the mRNA of the C-fos oncogene (Fig 1A). The binding curves were obtained by keeping the 5’FAM-RNA at 10 nM and adding increasing amounts of HuR. The apparent dissociation constant for the HuR/RNA binding was estimated to be approximately 20 nM (Fig 1A) using the simplified equation as described. To evaluate the expected effect of the inhibitors on the FP readout of the essay, we measured displacement of the fluorescently labeled RNA by the unlabeled RNA (Fig 1B). In displacement assay, the 10nM of 5’FAM-RNA concentration was mixed with 50nM at which fluorescence polarization value was approximately 80% of the maximal value. Fluorescence polarization was measured as a function of the unlabeled RNA concentration. IC50 was obtained (~40nM) by fitting to the equation specified in the figure legend (Fig 1B)
Supplementary file pone.0138780.s002.tif: S2 Fig Dose responses of hits on confirmed hits from primary screening. Compounds at 250uM in final concentration in the assay volume of 25uL were added to the mixture of 10nM RNA and 50nM HuR in the first well in 384 format plate followed by a serial dilution into next well where the concentration of RNA and HuR was kept constant. (TIF) Click here for additional data file.
Supplementary file pone.0138780.s010.doc: S1 Table IC50 for confirmed hits from primary HTS screening. IC50s were obtained by fitting to the equation of ΔP = ΔPmax/(1+10^((Logx0-X)*p)). (DOC) Click here for additional data file.
A general note: Fluorescence polarisation rises when a labelled molecule tumbles more slowly, as on binding a larger partner.
One may read the IC50 as the concentration at which inhibition is half-maximal. Turning to `Cc1ccc(Nc2ccc(N)cc2S(=O)(=O)O)cc1` [C2], the IC50 came to 41 µM.
In the case of `O=C(O)C1=NN(c2cc(Cl)c(S(=O)(=O)O)cc2Cl)C(=O)C1` [C5], the IC50 was determined as 16.7 µM.
In the case of `COCC(=O)OC1CCn2c1nc1c2C(=O)C(C)=C(NC(C)=O)C1=O` (stereo not drawn) [C12], the IC50 worked out at 17.4 µM.
Consider `O=C(Nc1cccc([N+](=O)[O-])c1)c1ccc2ccccc2c1O` [C4], for which the IC50 was 97.4 µM.
Turning to `CC#CC#Cc1cccc(=O)o1` [C8], the IC50 was found to be 44.4 µM.
Regarding `O=C(O)c1cc(N2C(=O)C=CC2=O)cc(N2C(=O)C=CC2=O)c1` [C3], the IC50 was 26.9 µM.
On the same count and under the same terms, then `CO[C@@H]1[C@@H](OC(=O)c2ccc(C)[nH]2)[C@@H](O)[C@H](Oc2ccc3c(O)c(NC(=O)c4ccc(O)c(CC=C(C)C)c4)c(=O)oc3c2Cl)OC1(C)C` [C11], with 41.9 µM.
Same read-out and setting: the value for `CSc1nc(N)c(N=Nc2ccc([As](=O)(O)O)cc2)c(=O)[nH]1` [C6] was 2.7 µM; that for `COC(=O)CC1OCC=C2CN3CCC45C6=CC(=O)C(=O)C([N+](=O)[O-])=C6NC4C1C2CC35` (stereo not drawn) [C9] was 69.6 µM; that for `COc1cccc2c1C(=O)c1c(O)c3c(c(O)c1C2=O)CC(O)(/C(C)=N/O)CC3OC1CC(N)C(O)C(C)O1` (stereo not drawn) [C10] was 21.7 µM.
On the same count and under the same terms, the value for `CCOC(=O)C(=O)Cc1cccnn1` [C7] was 4.6 µM.

In a further series the target is T2, Full length HuR (Homo sapiens, UniProt Q15717).
T2 construct: Full length (residue 1–326), RRM1-2 (residue 1–190); inferred from pET14b vector and metal chelation chromatography) (N); made in house; host or cells: E. coli BL21 Rosetta
T2 sequence (Q15717 whole entry): as above
The series is described as follows: Sedimentation velocity analytical ultracentrifugation (AUC) of HuR dimer/oligomer. In kind it is biochemical. The note with it: 10uM HuR and 20uM compounds. How it is done: Sedimentation velocity analytical ultracentrifugation was performed on a Beckman XLA analytical ultracentrifuge using an AN50 Ti rotor with standard Epon 2-channel centerpieces. The samples were spun at 25000rpm for~12hrs at 20 C. 25 scans measuring absorbance at 280nm were collected. The data were analyzed using Ultrascan III software.
Supplementary file pone.0138780.s005.tif: S5 Fig Post-hit validation using analytical ultracentrifugation (AUC). Sedimentation velocity studies are informative of the overall shape of molecule. […] We tested 4 compounds from secondary screening. 30% and 50% fraction of boundary were in orange. […] (TIF) Click here for additional data file.
Turning to `Cc1ccc(Nc2ccc(N)cc2S(=O)(=O)O)cc1` [C2], the “effect on formation of HuR dimer/oligomer (shift of boundary toward monomer)” value was “did not”.
Still for that read-out and setting: the value for `CC#CC#Cc1cccc(=O)o1` [C8] was “did not”.

The next series deals with T3, HuR full length (UniProt Q15717 1-326). In words: fluorescence polarization; 10 nM RNA; apparent Kd; FP: 50 mM Na phosphate, 100 mM NaCl, 5 mM TCEP, pH 7.0, 384-well plate; temperature not stated; NMR conditions not in material. The note with it: protein: recombinant; (pET14b, metal chelation); label: 5'-FAM; single strand.
T3 sequence (Q15717 whole entry): as above
Turning to AUUUUUAUUUU (ssRNA) [5'-FAM c-Fos 11-mer ARE RNA], the Kd is roughly 0.02 µM.

A further series addresses T3, HuR full length. The series is described as follows: competition (fluorescence polarization); displacement of 10 nM 5'-FAM RNA (N1) from 50 nM HuR; FP: 50 mM Na phosphate, 100 mM NaCl, 5 mM TCEP, pH 7.0, 384-well plate; temperature not stated; NMR conditions not in material. The note with it: protein: recombinant; (pET14b, metal chelation); single strand.
AUUUUUAUUUU (ssRNA) [unlabeled c-Fos 11-mer ARE RNA]: the IC50 is roughly 0.04 µM.
